According to US8227207B2, “Bioactive peptides derived from the proteins of egg white by means of enzymatic hydrolysis” (Consejo Superior de Investigaciones Cientifcas, priority 2004, dated 2012):
Residues, ends and D or L forms follow the SMILES beside them.

Tests used:
[1] = system: canine mesenteric arteries; settings: listed as ovokinin; cited from earlier work
[2] = system: spontaneously hypertensive rats (SHR); settings: ovokinin oral 100 mg/kg, ovokinin (2-7) 10 mg/kg; cited from earlier work
[3] = target: ACE (Homo sapiens, UniProt P12821); settings: according to the cited authors; listed as ovokinin; cited from earlier work
[4] = target: T1, angiotensin converting enzyme (ACE, EC 3.4.15.1) (Oryctolagus cuniculus, UniProt P12822); assay type: biochemical
T1 sequence (P12822 34-1310): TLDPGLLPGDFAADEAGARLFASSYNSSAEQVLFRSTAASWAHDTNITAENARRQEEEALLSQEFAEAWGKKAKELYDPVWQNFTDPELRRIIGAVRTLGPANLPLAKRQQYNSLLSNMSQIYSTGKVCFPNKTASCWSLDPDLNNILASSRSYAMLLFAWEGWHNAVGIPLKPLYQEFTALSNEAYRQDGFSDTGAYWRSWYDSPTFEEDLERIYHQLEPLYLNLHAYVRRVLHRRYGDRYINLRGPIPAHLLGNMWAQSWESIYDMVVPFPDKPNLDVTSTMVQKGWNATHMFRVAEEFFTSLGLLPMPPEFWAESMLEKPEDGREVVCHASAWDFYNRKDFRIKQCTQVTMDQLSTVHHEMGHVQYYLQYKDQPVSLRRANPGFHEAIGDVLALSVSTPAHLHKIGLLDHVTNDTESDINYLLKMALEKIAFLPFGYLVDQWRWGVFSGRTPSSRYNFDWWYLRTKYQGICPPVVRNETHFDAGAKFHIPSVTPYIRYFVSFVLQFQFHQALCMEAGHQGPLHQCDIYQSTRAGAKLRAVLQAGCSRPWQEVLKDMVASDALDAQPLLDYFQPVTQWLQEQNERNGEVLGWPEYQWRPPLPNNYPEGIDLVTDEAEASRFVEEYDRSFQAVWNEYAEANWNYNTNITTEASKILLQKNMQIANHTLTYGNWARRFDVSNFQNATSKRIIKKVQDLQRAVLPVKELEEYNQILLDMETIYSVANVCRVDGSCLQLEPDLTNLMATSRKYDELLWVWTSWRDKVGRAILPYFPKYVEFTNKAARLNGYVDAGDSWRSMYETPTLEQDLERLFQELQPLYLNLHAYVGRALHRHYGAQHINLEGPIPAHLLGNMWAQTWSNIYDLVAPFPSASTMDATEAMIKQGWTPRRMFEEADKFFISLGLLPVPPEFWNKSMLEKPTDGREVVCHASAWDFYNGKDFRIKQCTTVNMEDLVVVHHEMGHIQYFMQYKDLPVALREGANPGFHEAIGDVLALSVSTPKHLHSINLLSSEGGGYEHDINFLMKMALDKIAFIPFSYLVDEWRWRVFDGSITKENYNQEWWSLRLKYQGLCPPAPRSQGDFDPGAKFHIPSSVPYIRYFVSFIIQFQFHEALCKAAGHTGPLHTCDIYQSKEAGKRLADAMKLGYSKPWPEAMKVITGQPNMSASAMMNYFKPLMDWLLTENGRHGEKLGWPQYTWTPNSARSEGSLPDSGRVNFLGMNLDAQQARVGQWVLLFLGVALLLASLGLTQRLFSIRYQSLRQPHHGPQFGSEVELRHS
Experimental: (§1) The inhibitory activity of the angiotensin converting enzyme (ACE) is measured in vitro according to the method of D. W. Cushman and H. S. Cheung (Spectrophotometric assay and properties of the angiotensin-converting enzyme of rabbit lung. Biochemical Pharmacology, 1971, 20: 1637-1648), later on modified by Y. K. Kim, S. Yoon, D. Y. Yu, B. Lönnerdal and B. H. Cheung (Novel angiotensin-I-converting enzyme inhibitory peptides derived from recombinant human αs1-casein expressed in Escherichia coli, Journal of Dairy Research 1999, 66, 431-439).
(§2) The substrate hippuryl histidyl leucine (HHL, Sigma Chemicals Co., St. Louis, Mo., USA) is dissolved in a 0.1 M borate buffer with 0.3 M NaCl pH 8.3 to obtain a final concentration of 5 mM. To 100 μl of substrate are added 40 μl of each of the samples whose ACEI activity it is wished to determine. The ACE enzyme (EC 3.4.15.1, Sigma) is added, dissolved in 50% glycerol and diluted 1/10 in bidistilled water at the moment of conducting the assay. The reaction is carried out at 37° C. for 30 minutes in a water-bath. The enzyme is deactivated by lowering the pH with 150 μl of 1 N HCl. The hippuric acid formed is extracted with 1000 μl of ethyl acetate. Following vortex stirring for 20 seconds, it is centrifuged at 4000 rpm for 10 minutes at room temperature. 750 μl of the organic phase are taken and evaporated by heating at 95° C. for 10 minutes. The hippuric acid residue is redissolved in 800 μl of bidistilled water and, following stirring for 20 seconds, the absorbency at 228 nm is measured in a Dur-70 spectrophotometer from Beckman Instruments, Inc., Fullerton, USA.
(§3) In order to calculate the percentage of ACEI activity, the following formula is used
(§4) The blank is used for correcting the background absorbency. This contains substrate, enzyme and 20 μl of bidistilled water in place of the sample, and the reaction is halted at zero time. The control implies a hundred percent of the enzymatic action on the substrate in the absence of inhibitors and contains 20 μl of water in place of the sample and is incubated the same time as the sample.
(§5) The results are presented as the IC50 (μM or μg/ml) or concentration at which 50% of the enzyme's activity is inhibited. The concentration of protein is determined by means of the bicinchonomic acid (BCA) assay (Pierce, Rockford, Ill., USA) using bovine seroalbumin as reference.

[5] = system: canine mesenteric arteries; settings: literature; cited from earlier work
[6] = system: spontaneously hypertensive rats (SHR); settings: SHR; literature; ovokinin orally 100 mg/kg; cited from earlier work
[7] = system: angiotensin converting enzyme (ACE) (EC 3.4.15.1, Sigma); experiment: In vitro inhibitory activity of the angiotensin converting enzyme (ACEI activity); assay type: biochemical; settings: result in words
Experimental: Measurement of the Inhibitory Activity of the Angiotensin Converting Enzyme (ACEI Activity)
as §1, §2, §3, §4, §5

ACE, sequence (P12821 30-1306, species assumed): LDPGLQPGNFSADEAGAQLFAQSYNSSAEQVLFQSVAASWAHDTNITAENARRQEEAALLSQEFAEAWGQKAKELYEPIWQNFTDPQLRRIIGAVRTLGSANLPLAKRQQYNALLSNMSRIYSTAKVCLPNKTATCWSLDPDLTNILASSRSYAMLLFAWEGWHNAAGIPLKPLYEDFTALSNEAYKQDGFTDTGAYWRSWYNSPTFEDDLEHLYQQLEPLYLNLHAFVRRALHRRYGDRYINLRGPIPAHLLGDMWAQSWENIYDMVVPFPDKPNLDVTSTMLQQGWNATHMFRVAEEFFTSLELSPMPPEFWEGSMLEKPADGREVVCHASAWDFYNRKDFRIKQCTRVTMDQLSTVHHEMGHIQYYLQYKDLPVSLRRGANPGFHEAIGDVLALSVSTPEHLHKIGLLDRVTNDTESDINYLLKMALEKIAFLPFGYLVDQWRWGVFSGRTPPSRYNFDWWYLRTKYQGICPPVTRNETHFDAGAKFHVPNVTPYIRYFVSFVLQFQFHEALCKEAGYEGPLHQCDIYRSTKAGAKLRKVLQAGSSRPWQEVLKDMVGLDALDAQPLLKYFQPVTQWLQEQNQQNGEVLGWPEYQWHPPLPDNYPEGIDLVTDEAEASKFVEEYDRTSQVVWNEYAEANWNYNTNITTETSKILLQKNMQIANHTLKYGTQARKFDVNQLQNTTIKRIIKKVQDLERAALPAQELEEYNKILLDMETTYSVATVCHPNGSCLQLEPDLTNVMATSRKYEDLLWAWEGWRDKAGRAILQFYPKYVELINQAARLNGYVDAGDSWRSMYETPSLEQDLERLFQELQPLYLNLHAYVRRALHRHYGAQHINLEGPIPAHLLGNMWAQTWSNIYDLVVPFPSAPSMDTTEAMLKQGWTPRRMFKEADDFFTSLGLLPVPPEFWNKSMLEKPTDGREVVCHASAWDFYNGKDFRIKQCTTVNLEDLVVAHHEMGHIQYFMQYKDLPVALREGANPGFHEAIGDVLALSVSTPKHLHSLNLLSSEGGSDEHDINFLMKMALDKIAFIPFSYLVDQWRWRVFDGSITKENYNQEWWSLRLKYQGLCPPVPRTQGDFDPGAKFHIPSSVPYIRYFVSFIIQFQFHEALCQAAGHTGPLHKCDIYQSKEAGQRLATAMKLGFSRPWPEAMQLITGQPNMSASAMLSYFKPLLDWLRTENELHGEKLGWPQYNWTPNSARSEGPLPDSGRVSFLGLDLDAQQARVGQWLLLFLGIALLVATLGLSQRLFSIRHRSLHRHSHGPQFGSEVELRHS

Row | ACEI activity in vitro [7] | SMILES | vasorelaxing (vasodilatory) activity (in words) [1] | anti-hypertensive / vasodilatory activity in SHR (in words) [2] | ACEI activity (in words) [3] | ACEI activity in vitro (in words) ([4]; peptides) | IC50 ([4]; read-out: ACEI activity IC50, synthetic peptides) | vasorelaxing activity [5] | anti-hypertensive activity [6]
1 |  | CC(C)C[C@H](NC(=O)[C@H](Cc1ccccc1)NC(=O)[C@@H]1CCCN1C(=O)[C@H](Cc1c[nH]cn1)NC(=O)[C@H](CC(=O)O)NC(=O)[C@H](C)NC(=O)[C@H](CCCNC(=N)N)NC(=O)[C@@H](N)Cc1ccccc1)C(=O)O [SEQ. ID. N^o 5] (H-FRADHPFL-OH; N-terminus and C-terminus assumed) | displayed vasorelaxing activity | possessed anti-hypertensive activity | did not possess ACEI activity | potent ACEI activity | 3.2 µM |  | 
2 | potent ACEI activity in vitro | CC(C)C[C@H](NC(=O)[C@H](Cc1ccccc1)NC(=O)[C@@H]1CCCN1C(=O)[C@H](Cc1cnc[nH]1)NC(=O)[C@H](CC(=O)O)NC(=O)[C@H](C)NC(=O)[C@H](CCCNC(=N)N)NC(=O)[C@@H](N)Cc1ccccc1)C(=O)O [SEQ. ID. No 5] (H-FRADHPFL-OH) |  |  |  |  |  | displayed vasorelaxing activity in canine mesenteric arteries | possessed anti-hypertensive activity when administered orally to spontaneously hypertensive rats (SHR) at doses of 100 mg/kg
